Assays:
Human Calpain 2/NS1 = target: T1, Human Calpain 2/NS1 (Homo sapiens, UniProt P17655); assay: Biochemical inhibition of calpain 2, continuous fluorescence (FRET substrate) assay; conditions: mean, read-out: Human Calpain 2/NS1 IC50 (nM)_MEAN
T1 sequence (P17655 1-700): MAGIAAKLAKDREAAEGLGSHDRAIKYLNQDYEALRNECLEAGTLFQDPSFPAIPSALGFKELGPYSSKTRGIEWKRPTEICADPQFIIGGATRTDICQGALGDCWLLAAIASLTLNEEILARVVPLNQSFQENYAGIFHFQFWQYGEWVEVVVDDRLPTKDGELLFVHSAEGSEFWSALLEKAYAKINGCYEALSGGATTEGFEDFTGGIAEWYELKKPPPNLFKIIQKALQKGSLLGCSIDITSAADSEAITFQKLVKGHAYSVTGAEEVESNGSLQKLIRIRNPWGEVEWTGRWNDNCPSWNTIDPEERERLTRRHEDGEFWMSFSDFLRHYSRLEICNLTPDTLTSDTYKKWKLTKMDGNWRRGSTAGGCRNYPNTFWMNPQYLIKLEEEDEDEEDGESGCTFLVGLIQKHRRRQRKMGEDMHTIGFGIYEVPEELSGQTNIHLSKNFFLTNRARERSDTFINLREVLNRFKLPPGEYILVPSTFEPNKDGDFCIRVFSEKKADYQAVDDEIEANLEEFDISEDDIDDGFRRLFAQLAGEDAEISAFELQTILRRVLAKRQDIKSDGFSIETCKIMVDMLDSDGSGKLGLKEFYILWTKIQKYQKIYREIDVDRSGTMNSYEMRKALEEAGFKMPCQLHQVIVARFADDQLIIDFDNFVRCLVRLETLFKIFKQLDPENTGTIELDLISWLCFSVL
T1 sequence (P04632 1-268 partner): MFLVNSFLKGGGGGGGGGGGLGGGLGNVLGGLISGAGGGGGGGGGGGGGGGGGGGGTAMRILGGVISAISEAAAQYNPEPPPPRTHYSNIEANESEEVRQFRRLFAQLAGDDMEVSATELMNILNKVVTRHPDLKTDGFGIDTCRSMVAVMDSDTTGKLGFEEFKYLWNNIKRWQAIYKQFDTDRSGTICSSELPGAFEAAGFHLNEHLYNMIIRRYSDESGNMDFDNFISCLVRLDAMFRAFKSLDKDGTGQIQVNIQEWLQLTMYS
In short: (§1)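 IC50 values come from 4-parameter fits of progress-curve rates (1-5 min slopes) against log inhibitor concentration. Calpain and inhibitor premixed at ambient 25C in Tris pH ~7.5/NaCl/DTT buffer, then CaCl2 and FRET substrate added to activate; 5-FAM fluorescence (ex 490/em 520) followed 10 min.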

Human Calpain 9/NS1 = target: T2, Human Calpain 9/NS1 (Homo sapiens, UniProt O14815); assay: Biochemical inhibition of calpain 9, continuous fluorescence (FRET substrate) assay; conditions: mean, read-out: Human Calpain 9/NS1 IC50 (nM)_MEAN
T2 sequence (O14815 1-690): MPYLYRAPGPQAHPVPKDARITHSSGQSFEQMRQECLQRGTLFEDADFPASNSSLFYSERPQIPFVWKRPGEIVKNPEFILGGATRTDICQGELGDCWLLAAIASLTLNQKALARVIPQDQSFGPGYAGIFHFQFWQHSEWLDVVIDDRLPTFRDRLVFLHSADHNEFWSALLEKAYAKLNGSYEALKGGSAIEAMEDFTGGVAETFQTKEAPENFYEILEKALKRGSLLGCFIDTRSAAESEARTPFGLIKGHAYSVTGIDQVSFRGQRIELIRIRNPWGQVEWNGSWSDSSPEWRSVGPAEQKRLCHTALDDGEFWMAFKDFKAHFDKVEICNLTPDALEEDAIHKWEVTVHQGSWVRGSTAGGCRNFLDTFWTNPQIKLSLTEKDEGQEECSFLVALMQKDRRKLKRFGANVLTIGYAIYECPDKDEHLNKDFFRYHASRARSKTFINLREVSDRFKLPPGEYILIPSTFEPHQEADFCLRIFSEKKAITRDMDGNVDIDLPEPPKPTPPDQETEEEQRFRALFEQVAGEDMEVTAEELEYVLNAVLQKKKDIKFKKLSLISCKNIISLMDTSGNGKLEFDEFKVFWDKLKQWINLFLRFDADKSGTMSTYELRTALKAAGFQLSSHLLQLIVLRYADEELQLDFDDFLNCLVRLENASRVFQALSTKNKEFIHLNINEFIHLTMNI
T2 sequence (P04632 1-268 partner): T1 sequence (P04632 1-268 partner)
In short: as §1

Human Calpain 1/NS1 = target: T3, Human Calpain 1/NS1 (Homo sapiens, UniProt P07384); assay: Biochemical inhibition of calpain 1, continuous fluorescence (FRET substrate) assay; conditions: mean, read-out: Human Calpain 1/NS1 IC50 (nM)_MEAN
T3 sequence (P07384 1-714): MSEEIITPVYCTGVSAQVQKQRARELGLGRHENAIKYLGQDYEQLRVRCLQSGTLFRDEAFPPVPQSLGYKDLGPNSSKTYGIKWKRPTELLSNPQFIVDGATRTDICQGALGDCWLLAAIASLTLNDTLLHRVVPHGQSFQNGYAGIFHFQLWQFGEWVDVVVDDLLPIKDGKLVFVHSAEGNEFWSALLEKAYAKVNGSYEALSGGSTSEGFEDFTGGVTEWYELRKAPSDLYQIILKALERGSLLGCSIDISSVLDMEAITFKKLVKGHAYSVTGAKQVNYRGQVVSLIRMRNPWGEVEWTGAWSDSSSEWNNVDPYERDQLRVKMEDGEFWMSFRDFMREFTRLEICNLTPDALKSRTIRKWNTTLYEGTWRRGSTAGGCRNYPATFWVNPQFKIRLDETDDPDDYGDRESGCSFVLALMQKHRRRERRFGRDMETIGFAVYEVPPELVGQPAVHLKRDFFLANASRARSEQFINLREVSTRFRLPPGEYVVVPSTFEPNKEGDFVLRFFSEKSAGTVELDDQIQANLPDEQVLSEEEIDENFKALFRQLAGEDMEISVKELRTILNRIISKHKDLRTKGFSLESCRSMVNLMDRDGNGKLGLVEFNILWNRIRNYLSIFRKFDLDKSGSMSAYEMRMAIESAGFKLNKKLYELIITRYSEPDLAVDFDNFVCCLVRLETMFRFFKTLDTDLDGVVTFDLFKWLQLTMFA
T3 sequence (P04632 1-268 partner): T1 sequence (P04632 1-268 partner)
In short: as §1

CN1CCN(CCCNC(=O)C(=O)C2CCCCOCCOCc3ccccc3C(=O)N2)CC1 (stereo not drawn) [Compound 105, N-(3-(4-methylpiperazin-1-yl)propyl)-2-oxo-2-(12-oxo-1,3,4,6,7,8,9,10,11,12-decahydrobenzo[f][1,4]dioxa[9]azacyclotetradecin-10-yl)acetamide]
IC50 (Human Calpain 2/NS1): > 10000 nM
IC50 (Human Calpain 9/NS1): < 3000 nM
IC50 (Human Calpain 1/NS1): > 10000 nM

Cc1cc(C)cc(CNC(=O)C(=O)C2CCCCOCCOCc3ccccc3C(=O)N2)c1 (stereo not drawn) [Compound 111, N-(3,5-dimethylbenzyl)-2-oxo-2-(12-oxo-1,3,4,6,7,8,9,10,11,12-decahydrobenzo[f][1,4]dioxa[9]azacyclotetradecin-10-yl)acetamide]
IC50 (Human Calpain 2/NS1): 3000 to 10000 nM
IC50 (Human Calpain 9/NS1): < 3000 nM
IC50 (Human Calpain 1/NS1): > 10000 nM

O=C[C@@H]1CCCCCOc2cccc(c2)-c2ccccc2C(=O)N1 [Compound 30, (S)-11-Oxo-3-oxa-10-aza-1(1,2),2(1,3)-dibenzenacycloundecaphane-9-carbaldehyde]
IC50 (Human Calpain 2/NS1): < 3000 nM
IC50 (Human Calpain 9/NS1): < 3000 nM
IC50 (Human Calpain 1/NS1): < 3000 nM

O=C(NCc1cccc(OC(F)(F)F)c1)C(=O)C1CCCCOCCOCc2ccccc2C(=O)N1 (stereo not drawn) [Compound 120, 2-Oxo-2-(12-oxo-1,3,4,6,7,8,9,10,11,12-decahydrobenzo[f][1,4]dioxa[9]aza-cyclotetradecin-10-yl)-N-(3-(trifluoromethoxy)benzyl)acetamide]
IC50 (Human Calpain 2/NS1): > 10000 nM
IC50 (Human Calpain 9/NS1): < 3000 nM
IC50 (Human Calpain 1/NS1): > 10000 nM

O=C[C@@H]1CC=CCCOc2cccc(c2)-c2ccccc2C(=O)N1 [Compound 29, (S)-11-Oxo-3-oxa-10-aza-1(1,2),2(1,3)-dibenzenacycloundecaphan-6-ene-9-carbaldehyde]
IC50 (Human Calpain 2/NS1): < 3000 nM
IC50 (Human Calpain 9/NS1): < 3000 nM
IC50 (Human Calpain 1/NS1): < 3000 nM

O=C[C@@H]1CCCCCCCCc2cccnc2C(=O)N1 [Compound 49, (S)-15-Oxo-6,7,8,9,10,11,12,13,14,15-decahydro-5h-pyrido[2,3-c][1]aza-cyclotridecine-13-carbaldehyde]
IC50 (Human Calpain 2/NS1): 3000 to 10000 nM
IC50 (Human Calpain 9/NS1): < 3000 nM
IC50 (Human Calpain 1/NS1): > 10000 nM

O=C[C@@H]1Cc2ccccc2CCCOCc2ccccc2C(=O)N1 [Compound 31, (S)-17-Oxo-5,7,8,9,14,15,16,17-octahydrodibenzo[c,i][1]oxa[6]aza-cyclotridecine-15-carbaldehyde]
IC50 (Human Calpain 2/NS1): < 3000 nM
IC50 (Human Calpain 9/NS1): < 3000 nM
IC50 (Human Calpain 1/NS1): < 3000 nM

O=C[C@@H]1Cc2ccc(cc2)OC/C=C/COc2cccc(c2)-c2ccn(n2)-c2ncccc2C(=O)N1 [Compound 44, (2^2E,6S,11E)-4-oxo-2^1H-9,14-dioxa-5-aza-3(2,3)-pyridina-2(3,1)-pyrazola-1(1,3),8(1,4)-dibenzenacyclotetradecaphan-11-ene-6-carbaldehyde]
IC50 (Human Calpain 2/NS1): < 3000 nM
IC50 (Human Calpain 9/NS1): < 3000 nM
IC50 (Human Calpain 1/NS1): < 3000 nM

Cc1cccc(C)c1NC(=O)C(=O)[C@@H]1C/C=C\COCCOCc2ccccc2C(=O)N1 [Compound 61, (S,Z)—N-(2,6-dimethylphenyl)-2-oxo-2-(12-oxo-1,3,4,6,9,10,11,12-octahydrobenzo[f][1,4]dioxa[9]azacyclotetradecin-10-yl)acetamide]
IC50 (Human Calpain 2/NS1): > 10000 nM
IC50 (Human Calpain 9/NS1): > 10000 nM
IC50 (Human Calpain 1/NS1): > 10000 nM

NC(=O)C(=O)[C@@H]1CCCCCOc2cccc(c2)-c2ncccc2C(=O)N1 [Compound 130, (S)-2-oxo-2-(11-oxo-3-oxa-10-aza-1(2,3)-pyridina-2(1,3)-benzena-cycloundecaphane-9-yl)acetamide]
IC50 (Human Calpain 2/NS1): < 3000 nM
IC50 (Human Calpain 9/NS1): < 3000 nM
IC50 (Human Calpain 1/NS1): < 3000 nM

COc1cccc(CN(C)C(=O)C(=O)C2CCCCOCCOCc3ccccc3C(=O)N2)c1 (stereo not drawn) [Compound 116, N-(3-methoxybenzyl)-N-methyl-2-oxo-2-(12-oxo-1,3,4,6,7,8,9,10,11,12-decahydrobenzo[f][1,4]dioxa[9]azacyclotetradecin-10-yl)acetamide]
IC50 (Human Calpain 2/NS1): > 10000 nM
IC50 (Human Calpain 9/NS1): > 10000 nM
IC50 (Human Calpain 1/NS1): > 10000 nM

Cc1cc2n(n1)-c1cccc(c1)OCCCCC[C@@H](C(=O)C(N)=O)NC2=O [Compound 141, (S)-2-oxo-2-(11-oxo-1^1H-3-oxa-10-aza-1(3,4)-pyrazola-2(1,3)-benzena-cycloundecaphane-9-yl)acetamide]
IC50 (Human Calpain 2/NS1): < 3000 nM
IC50 (Human Calpain 9/NS1): < 3000 nM
IC50 (Human Calpain 1/NS1): < 3000 nM

— patent publication US11292801B2, “Calpain modulators and therapeutic uses thereof” (Blade Therapeutics, Inc., priority 2016, dated 2022)
